Key:
Assay in all cases: relative viability (nuclei count vs DMSO), 5 days (fraction); higher = more cells survive
[1] = compound: CC(C)=CC[C@@H](O)C1=CC(=O)c2c(O)ccc(O)c2C1=O [Shikonin]
Summary of the method: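 Viability was read as treated-well nuclei divided by vehicle-well nuclei, using the median across plates. Lung cancer cell lines in 1536-well plates were kept overnight at 37 °C, pinned with five √10-spaced library-drug doses, and after 5 days were Hoechst-stained, imaged at 4× and counted in MetaXpress. Plates passed only with control CV below 25% and at least one doubling.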

[2] = compound: CC(C)=CC[C@@H](O)C1=CC(=O)c2c(O)ccc(O)c2C1=O [Shikonin] + CC(C)C[C@H](NC(=O)[C@H](Cc1ccccc1)NC(=O)c1cnccn1)B(O)O [Bortezomib] (partner 0.002 µM)
Summary of the method: (§1)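 Lung cancer cell lines were seeded in 1536-well plates and dosed by pin tool the next day, with either a single drug or a fixed anchor-drug dose combined with five library-drug doses (not always all listed) spaced in √10 steps. Five days later, one step fixed the cells and stained their nuclei (final 0.05% Triton X-100, 1% formaldehyde, 1 ug/ml Hoechst), and nuclei were counted on 4× images. Relative viability is the nuclei count in treated wells divided by the count in vehicle wells, and each value is the median of duplicate plates.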

[3] = compound: CC(C)=CC[C@@H](O)C1=CC(=O)c2c(O)ccc(O)c2C1=O [Shikonin] + Nc1nc2[nH]cc(CCc3ccc(C(=O)N[C@@H](CCC(=O)O)C(=O)O)cc3)c2c(=O)[nH]1 [Pemetrexed] (partner 0.2 µM)
Summary of the method: as §1

[4] = compound: CC(C)N(CCCNC(=O)Nc1ccc(C(C)(C)C)cc1)C[C@H]1O[C@@H](n2ccc3c(N)ncnc32)[C@H](O)[C@@H]1O + N=C(N)NC(=N)NCCc1ccccc1 [Phenformin] (partner 250 µM)
Summary of the method: as §1

Row | Cell Line | relative viability ([1]; 0.01 µM) | relative viability ([1]; 0.1 µM) | relative viability ([1]; 0.3162 µM) | relative viability ([1]; 1 µM) | relative viability ([2]; first compound 0.01 µM) | relative viability ([2]; first compound 0.1 µM) | relative viability ([2]; first compound 0.3162 µM) | relative viability ([2]; first compound 1 µM) | relative viability ([3]; first compound 0.01 µM) | relative viability ([3]; first compound 0.1 µM) | relative viability ([3]; first compound 0.3162 µM) | relative viability ([3]; first compound 1 µM) | relative viability ([4]; first compound 0.08 µM) | relative viability ([4]; first compound 0.253 µM) | relative viability ([4]; first compound 0.8 µM) | relative viability ([4]; first compound 2.53 µM) | relative viability ([4]; first compound 8 µM)
1 | NCI-H23 | 1.02 | 1.11 | 1 | 0.981 | 1.11 | 0.953 | 1.13 | 1.13 | 0.662 | 0.832 | 0.704 | 0.766 | 0.771 | 0.806 | 0.791 | 0.843 | 0.746
2 | NCI-H322M | 0.924 | 0.917 | 0.921 | 1.06 | 1.14 | 1.32 | 1.26 | 1.33 | 0.575 | 0.591 | 0.6 | 0.777 | 0.795 | 0.711 | 0.75 | 0.749 | 0.762
3 | NCI-H441 | 1.24 | 0.942 | 1.18 | 0.975 | 0.581 | 0.666 | 0.549 | 0.603 | 0.282 | 0.223 | 0.252 | 0.266 | 0.813 | 0.923 | – | 0.776 | 0.824
4 | NCI-H460 | 1.06 | 1.07 | 1.07 | 1.05 | 1.35 | 0.78 | 1.03 | 1.3 | 0.0561 | 0.0603 | 0.06 | 0.063 | 0.493 | 0.555 | 0.54 | 0.485 | 0.436
5 | NCI-H520 | 0.947 | 1.06 | 0.977 | 0.931 | – | 0.699 | 0.48 | 0.689 | 0.801 | 0.784 | 0.689 | 0.604 | 0.606 | 0.342 | 0.353 | 0.655 | 0.618
6 | NCI-H596 | 0.935 | 0.962 | 1.04 | 1.08 | 1.06 | 1.01 | 0.948 | 1.29 | 0.502 | 0.536 | 0.414 | 0.475 | 0.819 | – | 0.626 | 0.781 | 0.713
7 | NCI-H647 | 1.07 | 1.08 | 1.08 | 0.9 | 1.06 | 0.829 | 1.05 | 1.03 | 0.194 | 0.174 | 0.183 | 0.156 | 0.469 | 0.559 | – | 0.478 | 0.568
8 | NCI-H650 | 1.08 | 0.937 | 0.999 | 0.913 | 0.83 | – | 0.77 | 0.98 | 0.87 | 0.987 | 1.13 | 0.857 | 0.433 | 0.456 | 0.514 | 0.417 | 0.411
9 | NCI-H661 | 1 | 1.06 | 1.06 | 0.928 | 0.835 | 0.818 | 0.734 | 0.769 | 0.944 | 1.02 | 0.957 | 0.729 | 0.28 | 0.27 | 0.276 | 0.288 | 0.305
10 | NCI-H838 | 1.09 | 1.04 | 1.03 | 0.988 | 0.992 | 0.727 | 0.842 | 0.685 | 0.234 | 0.24 | 0.243 | 0.258 | 0.487 | 0.394 | 0.551 | 0.551 | 0.51
11 | NCI-H1355 | 0.981 | 1.08 | 1.02 | 1.04 | 1.24 | 1.25 | 1.22 | 1.23 | 1.13 | 1.15 | 1.02 | 1.06 | 0.441 | 0.444 | 0.387 | 0.48 | 0.432
12 | NCI-H1437 | 0.989 | 1.01 | 0.998 | 0.989 | 0.643 | 0.562 | 0.527 | 0.46 | 0.332 | 0.37 | 0.291 | 0.354 | 0.278 | 0.344 | 0.276 | 0.294 | 0.309
13 | NCI-H1563 | 0.944 | 0.954 | 1.01 | 0.959 | 0.824 | 0.909 | 0.757 | 0.607 | 0.769 | 0.846 | 0.897 | 0.845 | 0.67 | 0.627 | 0.626 | 0.666 | 0.697
14 | NCI-H1650 | 0.914 | 0.992 | 0.782 | 0.962 | 0.269 | 0.212 | 0.191 | 0.171 | 0.35 | 0.403 | 0.331 | 0.274 | 0.311 | 0.424 | – | 0.429 | 0.473
15 | NCI-H1651 | 1.09 | 0.919 | 1.01 | 1.02 | 0.986 | 1.06 | 0.948 | 0.928 | 0.631 | 0.748 | 0.606 | 0.652 | 0.34 | 0.302 | 0.295 | 0.288 | 0.35
16 | NCI-H1666 | 0.966 | 1.02 | 1.08 | 1.05 | 0.799 | 0.879 | 0.819 | 0.729 | 0.869 | 0.854 | 0.916 | 0.861 | 0.546 | 0.594 | 0.543 | 0.586 | 0.542
